Among the data in patent US7317107B2, “Imidazole 4-carboxamide compounds with adenosine deaminase inhibiting activity” (Astellas Pharma Inc., priority 2002, dated 2008) are IC50 values, retold here.

In the assay the target is T1, Human ADA (Homo sapiens, UniProt P00813).
T1 construct: made in house
T1 sequence (P00813 1-363): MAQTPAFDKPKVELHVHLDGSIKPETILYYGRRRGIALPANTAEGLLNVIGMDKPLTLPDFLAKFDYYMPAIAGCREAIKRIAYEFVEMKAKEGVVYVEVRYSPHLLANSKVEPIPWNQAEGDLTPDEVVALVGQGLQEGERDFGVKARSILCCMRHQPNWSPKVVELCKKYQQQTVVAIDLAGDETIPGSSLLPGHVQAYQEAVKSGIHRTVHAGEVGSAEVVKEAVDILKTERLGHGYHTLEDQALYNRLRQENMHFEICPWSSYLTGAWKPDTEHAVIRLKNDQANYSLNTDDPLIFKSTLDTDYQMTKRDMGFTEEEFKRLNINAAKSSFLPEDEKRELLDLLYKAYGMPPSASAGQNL
The assay can be described thus: Adenosine Deaminase (ADA) Enzyme Assay. It counts as biochemical. Conditions: 0.16 μg/ml ADA, 0.1 mM adenosine, 10 mM phosphate buffer saline pH 7.4, room temperature, decrease in A265 for 3 minutes. On the procedure: Adenosine Deaminase (ADA) Enzyme Assay
• 1-{(3R,4S)-4-Hydroxy-1-[2-(4-ethoxyphenyl)-4-benzoxazolyl]-3-pentyl}-imidazole-4-carboxamide hydrochloride (E0023) • 1-{(3R,4S)-4-Hydroxy-1-[2-(2-thienyl)-7-benzoxazolyl]-3-pentyl}-imidazole-4-carboxamide hydrochloride (E0028) Test Method:
The reaction velocity (V) is measured by a change in absorbance at 265 nm (A265) resulting from the deamination of adenosine. Human ADA was expressed and purified from ADA-deficient bacterial strain. Reaction mixtures of a total volume of 200 μl contained 0.16 μg/ml of ADA and 0.1 mM of adenosine and test compound in 10 mM phosphate buffer saline (pH 7.4). The reaction was started by addition of ADA to a mixture of adenosine and test compound. The reaction was followed at room temperature by recording decrease in A265 for 3 minutes in SPECTRAmax 250 (Molecular Devices, USA) to automatically calculate Vmax. Inhibitory potency of test compound was expressed as IC50 value, the drug concentration required to produce 50% inhibition of Vmax in comparison to vehicle treatment.

Where a name gives a salt, the structure may show the parent alone.

By IC50 is commonly meant the concentration that gives 50% inhibition. A lower IC50 goes with higher potency. In turn, `CCOc1ccc(-c2nc3c(CC[C@H]([C@H](C)O)n4cnc(C(N)=O)c4)cccc3o2)cc1` [Compound E0023, 1-{(3R,4S)-4-Hydroxy-1-[2-(4-ethoxyphenyl)-4-benzoxazolyl]-3-pentyl}imidazole-4-carboxamide hydrochloride] yielded an IC50 of under 20 nM.
Molecule `C[C@H](O)[C@@H](CCc1cccc2nc(-c3cccs3)oc12)n1cnc(C(N)=O)c1` [Compound E0028, 1-{(3R,4S)-4-Hydroxy-1-[2-(2-thienyl)-7-benzoxazolyl]-3-pentyl}imidazole-4-carboxamide hydrochloride] came in with an IC50 of under 20 nM.
